Holding throughout (format): toxicity, cell-based
One data set concerns U2OS. Description: Incucyte cell viability with U2OS. The note with it: human, 10 µM, compound concentration 10 uM.
The next data set deals with Fibroblast. The data set is described as follows: Incucyte cell viability with human fibroblast. The note with it: 10 µM, compound concentration 10 uM.
For the next data set, the system named is HEK-293T. Description: Incucyte cell viability with HEK293T. The note with it: human, 10 µM, compound concentration 10 uM.
Where [1] appears, read: 0 h, replicate number 1, timepoint 0 hours.
The mark [2] stands for this setting: 0 h, replicate number 2, timepoint 0 hours.
Where [3] appears, read: 6 h, replicate number 1, timepoint 6 hours.
[4] abbreviates: 12 h, replicate number 1, timepoint 12 hours.
The mark [5] stands for this setting: 12 h, replicate number 2, timepoint 12 hours.
The mark [6] stands for this setting: 18 h, replicate number 1, timepoint 18 hours.
[7] abbreviates: 18 h, replicate number 2, timepoint 18 hours.
Where [8] appears, read: 24 h, replicate number 1, timepoint 24 hours.
[9] abbreviates: 24 h, replicate number 2, timepoint 24 hours.
The mark [10] stands for this setting: 6 h, replicate number 2, timepoint 6 hours.

Structures are written as SMILES.
Also: unitless GR value; below 1 slowed growth and below 0 cell loss.

As for `COC[C@@H](c1ccc(C(F)(F)F)cc1)N1CCN(C2(C)CCN(C(=O)c3c(C)ncnc3C)CC2)C[C@@H]1C.O=C(O)/C=C\C(=O)O` [VICRIVIROC MALEATE], the “Growth Rate” value with U2OS (setting [1]) was -0.67; in the data set with U2OS (setting [2]), -0.31; in the data set with U2OS (setting [3]), 0.58; in the data set on U2OS (setting [4]) it was 0.57; with U2OS (setting [5]) it was 0.98; in the data set on U2OS (setting [6]), 0.7. The “Growth Rate” value is 0.98 in the data set on U2OS (setting [7]); 0.8 with U2OS (setting [8]); 0.97 in the data set with U2OS (setting [9]); -0.4 with Fibroblast (setting [3]); 0.52 in the data set with Fibroblast (setting [10]); 0.17 with Fibroblast (setting [4]). In addition, the “Growth Rate” value is given as 0.68 in the data set on Fibroblast (setting [5]); 0.48 in the data set with Fibroblast (setting [6]); 0.79 in the data set with Fibroblast (setting [7]); 0.67 with Fibroblast (setting [8]); 0.83 in the data set on Fibroblast (setting [9]); 0.38 in the data set on HEK-293T (setting [1]). For the same molecule, the “Growth Rate” value in the data set on HEK-293T (setting [2]) was -1; with HEK-293T (setting [4]), 0.66; with HEK-293T (setting [6]), 0.49; with HEK-293T (setting [8]), 0.39.
For the molecule `CSCC[C@H](NC(=O)[C@H](CC(C)C)NC(=O)CNC(=O)[C@H](Cc1ccccc1)N(C)C(=O)[C@H](Cc1ccccc1)NC(=O)[C@H](CC(=O)O)NC(=O)CCC(=O)O)C(N)=O` [SENKTIDE], the “Growth Rate” value amounted to 0.94 in the data set on U2OS (setting [4]); 0.98 with U2OS (setting [5]); 0.91 with U2OS (setting [7]); 0.34 in the data set on Fibroblast (setting [1]); 0.41 with Fibroblast (setting [2]); 0.25 in the data set on Fibroblast (setting [10]). Also, the “Growth Rate” value in the data set on Fibroblast (setting [4]) is on record as 0.98; in the data set with Fibroblast (setting [5]), 0.87; in the data set with Fibroblast (setting [8]), 0.9; with HEK-293T (setting [1]), 0.75; with HEK-293T (setting [2]), -0.03; with HEK-293T (setting [3]), 0.83. Also, the “Growth Rate” value in the data set with HEK-293T (setting [5]) worked out at 0.93; in the data set with HEK-293T (setting [6]), 0.92; in the data set on HEK-293T (setting [8]), 0.84; in the data set with HEK-293T (setting [9]) it was 0.88.
`Cc1c(Cc2ccc3ccccc3n2)c2cc(F)ccc2n1CC(=O)O` [TIMAPIPRANT]: the “Growth Rate” value in the data set on U2OS (setting [2]) is recorded as -1; in the data set on U2OS (setting [3]), 0.37; in the data set on U2OS (setting [4]) it was 0.81; in the data set on U2OS (setting [6]), 0.63; in the data set with U2OS (setting [7]), 0.96; in the data set with Fibroblast (setting [1]), 0.53. The “Growth Rate” value worked out at 0.31 with Fibroblast (setting [2]); 0.6 with Fibroblast (setting [3]); 0.51 in the data set with Fibroblast (setting [4]); 0.8 in the data set on Fibroblast (setting [6]); 0.87 in the data set with Fibroblast (setting [8]); 0.4 in the data set with HEK-293T (setting [2]). Also, in the data set on HEK-293T (setting [6]), the “Growth Rate” value was 0.82.
Consider `Cc1nn(C)c2nc(NNC(=O)Nc3cc(Cl)nc(Cl)c3)cc(C(C)C)c12`, for which the “Growth Rate” value with U2OS (setting [2]) is given as -1; in the data set on U2OS (setting [5]), 0.96; in the data set on Fibroblast (setting [1]), 0.09; in the data set with Fibroblast (setting [2]) it was 0.58; with HEK-293T (setting [1]) it was 0.64; in the data set on HEK-293T (setting [2]) it was 0.57. Further, the “Growth Rate” value in the data set with HEK-293T (setting [8]) is 0.97.
